The record followed here is patent US10821115B2, “Compounds that inhibit Mcl-1 protein” (priority 2017, dated 2020).

For assay [1], the target named is recombinant human Mcl-1 (residues 171-327) / Bim interaction (Homo sapiens (Human), UniProt Q07820). Kind of assay: biochemical. Conditions: read-out: Mcl-1 HTRF IC50. The assay is classed as binding. Background: In TR-FRET formats the signal depends on donor and acceptor labels being close together.
Assay [2] concerns human multiple myeloma cell line, OPM-2. Nature of the assay: Cell viability assay (OPM-2 10 FBS), CellTiter-Glo. Format: cell-based. In a few lines: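 Serially diluted test compounds are incubated 16 h with cells (3000/well) in RPMI 1640 supplemented with 10% FBS. Viability is then measured by luminescence and IC50 calculated by 4-parameter logistic fit.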
(ATP-based viability assays read luminescence as a measure of living cells.)

[3] abbreviates: TR-FRET, Mcl-1(171-327) / biotin-Bim (51-76).
[4] abbreviates: 0.1 nM Mcl-1(171-327), 0.05 nM biotin-Bim (51-76).
Where [5] appears, read: Homo sapiens, OPM-2, 16 h, read-out: OPM-2 10% FBS IC50 IP, OPM-2 cells, 10% FBS, 16 h incubation.
Where [6] appears, read: read-out: OPM-2 10% FBS IC50 IP, OPM-2 cells, 10% FBS, 16 h, CellTiter-Glo.

Where two headings read alike, the source gives them in different places.

Chain of recombinant human Mcl-1 (residues 171-327) / Bim interaction (Q07820 171-327): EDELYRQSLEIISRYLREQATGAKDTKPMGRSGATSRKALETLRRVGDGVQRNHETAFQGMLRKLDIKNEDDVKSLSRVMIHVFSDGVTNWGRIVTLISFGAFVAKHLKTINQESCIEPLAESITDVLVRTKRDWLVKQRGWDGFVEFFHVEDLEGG

As a reminder, the IC50 is the concentration that inhibits the measured activity by half. `CC[C@@H]1CCCC[C@@]2(COCC(=O)O2)[C@@H]2CC[C@H]2CN2C[C@@]3(CCCc4cc(Cl)ccc43)COc3ccc(cc32)C(=O)NS1(=O)=O` [Example 100043, (2S,3′R,6′R,12′R,22′S)-6″-chloro-12′-ethyl-3″,4″-dihydro-2″H,6H,15′H-dispiro[1,4-dioxane-2,7′-[20]oxa[13]thia[1,14]diazatetracyclo [14.7.2.0~3,6~.0~19,24~]pentacosa[16,18,24]triene-22′,1″-naphthalene]-6,15′-dione 13′,13′-dioxide]: the IC50 in assay [1] (setting [3]) came to 1.67 nM; in assay [2] (Homo sapiens, OPM-2, 16 h, read-out: OPM-2 10% FBS IC50 IP, OPM-2 cells, 10% FBS, 16 h, CellTiter-Glo), 7280 nM.

Turning to `CO[C@@]1(CN2CCN3C[C@H](C)OC[C@@H]3C2)/C=C/C[C@H](C)[C@@H](C)S(=O)(=O)NC(=O)c2ccc3c(c2)N(C[C@@H]2CC[C@H]21)C[C@@]1(CCCc2cc(Cl)ccc21)CO3` [Example 145, (1S,3′R,6′R,7′S,8′E,11′S,12′R)-6-chloro-7′-methoxy-11′,12′-dimethyl-7′-(((3S,9aS)-3-methylhexahydropyrazino[2,1-c][1,4]oxazin-8(1H)-yl)methyl)-3,4-dihydro-2H,15′H-spiro[naphthalene-1,22′-[20]oxa[13]thia[1,14]diazatetracyclo [14.7.2.0~3,6~.0~19,24~]pentacosa[8,16,18,24]tetraen]-15′-one 13′,13′-dioxide], the IC50 in assay [1] (setting [4]) worked out at 0.124 nM; in assay [2] (setting [5]), 113 nM.

Take `COCC(COC)N1CCN(C[C@@]2(OC)/C=C/C[C@H](C)[C@@H](C)S(=O)(=O)NC(=O)c3ccc4c(c3)N(C[C@@H]3CC[C@H]32)C[C@@]2(CCCc3cc(Cl)ccc32)CO4)CC1` [Example 304, (1S,3′R,6′R,7′R,8′E,11′S,12′R)-6-chloro-7′-methoxy-7′-((4-(2-methoxy-1-(methoxymethyl)ethyl)-1-piperazinyl)methyl)-11′,12′-dimethyl-3,4-dihydro-2H,15′H-spiro[naphthalene-1,22′-[20]oxa[13]thia[1,14]diazatetracyclo [14.7.2.0~3,6~.0~19,24~]pentacosa[8,16,18,24]tetraen]-15′-one 13′,13′-dioxide]: the IC50 was found to be 0.226 nM in assay [1] (setting [4]) and 239 nM in assay [2] (setting [5]).

Take `CO[C@@]1(CCCO)/C=C/C[C@H](C)[C@@H](C)S(=O)(=O)NC(=O)c2ccc3c(c2)N(C[C@@H]2CC[C@H]21)C[C@@]1(CCCc2cc(Cl)ccc21)CO3` [Example 100178, (1S,3′R,6′R,7′S,8′E,11′S,12′R)-6-chloro-7′-(3-hydroxypropyl)-7′-methoxy-11′,12′-dimethyl-3,4-dihydro-2H,15′H-spiro[naphthalene-1,22′-[20]oxa[13]thia[1,14]diazatetracyclo [14.7.2.0~3,6~.0~19,24~]pentacosa[8,16,18,24]tetraen]-15′-one 13′,13′-dioxide]: the figures for the IC50 in assay [1] (setting [3]) and in assay [2] (setting [6]) were 0.432 nM and 237 nM, respectively.

Consider `CO[C@@]1(CN2CCC23COC3)/C=C/C[C@H](C)[C@@H](C)S(=O)(=O)NC(=O)c2ccc3c(c2)N(C[C@@H]2CC[C@H]21)C[C@@]1(CCCc2cc(Cl)ccc21)CO3` [Example 208, (1S,3′R,6′R,7′S,8′E,11′S,12′R)-6-chloro-7′-methoxy-11′,12′-dimethyl-7′-(6-oxa-1-azaspiro[3.3]hept-1-ylmethyl)-3,4-dihydro-2H,15′H-spiro[naphthalene-1,22′-[20]oxa[13]thia[1,14]diazatetracyclo [14.7.2.0~3,6~.0~19,24~]pentacosa[8,16,18,24]tetraen]-15′-one 13′,13′-dioxide], for which the IC50 was 0.099 nM in assay [1] (setting [4]) and 368 nM in assay [2] (setting [5]).

For the molecule `C[C@H](C(=O)O)[C@@]1(O)/C=C/C[C@H](C)[C@@H](C)S(=O)(=O)NC(=O)c2ccc3c(c2)N(C[C@@H]2CC[C@H]21)C[C@@]1(CCCc2cc(Cl)ccc21)CO3` (single isomer, unassigned) [Example 100121], the concentration for half-maximal inhibition (IC50) was 0.056 nM in assay [1] (setting [3]) and 2530 nM in assay [2] (setting [6]).
